pKi: −log10 of the molar value. Where a SMILES comes first, the peptide text is derived from it.
Columns and labels:
protein phosphatase = assay: Compound was evaluated for the Michaelis-Menten constant, Km in a generic protein phosphatase stopped assay system; assay type: ADME
[1] = Compound was evaluated for the Ki value for peptide alcohol for competitive inhibition in the presence of Mn2+ ions at pH 7.5; assay type: ADME

Km (protein phosphatase) | pKi [1] | Compound
3.7 mM | 2.80 | CC(=O)N[C@@H](CCCN=C(N)N)C(=O)N[C@@H](CCCN=C(N)N)C(=O)N[C@@H](C)C(=O)N[C@H](C(=O)N[C@H](C(=O)N[C@@H](C)C(=O)O)C(C)C)[C@@H](C)OP(=O)(O)O (HELM PEPTIDE1{[ac].R.R.A.[C[C@@H](OP(=O)(O)O)[C@H](N[*:1])C(=O)[*:2]].V.A}$$$$V2.0)
– | < 1.52 | H-RRATVA-OH

— ChEMBL document CHEMBL1134186, “Protein phosphatase 1 catalyses the direct hydrolytic cleavage of phosphate monoester in a ternary complex mechanism” (Bioorg Med Chem Lett, 2001)
